Source: ChEMBL document CHEMBL4425085, “Challenges and Perspectives on the Development of Small-Molecule EGFR Inhibitors against T790M-Mediated Resistance in Non-Small-Cell Lung Cancer” (J Med Chem, 2016)

Assays:
[1] = target: Epidermal growth factor receptor (Homo sapiens, UniProt P00533); experiment: Binding affinity to wild type partial length human EGFR expressed in bacterial system by KINOMEscan assay
[2] = target: Epidermal growth factor receptor (Homo sapiens, UniProt P00533, L858R/T790M); experiment: Binding affinity to partial length human EGFR L858R/T790M double mutant expressed in mammalian system by KINOMEscan assay
Chain of Epidermal growth factor receptor (Homo sapiens, UniProt P00533, L858R/T790M) (P00533 25-1210 T790M/L858R limits assumed): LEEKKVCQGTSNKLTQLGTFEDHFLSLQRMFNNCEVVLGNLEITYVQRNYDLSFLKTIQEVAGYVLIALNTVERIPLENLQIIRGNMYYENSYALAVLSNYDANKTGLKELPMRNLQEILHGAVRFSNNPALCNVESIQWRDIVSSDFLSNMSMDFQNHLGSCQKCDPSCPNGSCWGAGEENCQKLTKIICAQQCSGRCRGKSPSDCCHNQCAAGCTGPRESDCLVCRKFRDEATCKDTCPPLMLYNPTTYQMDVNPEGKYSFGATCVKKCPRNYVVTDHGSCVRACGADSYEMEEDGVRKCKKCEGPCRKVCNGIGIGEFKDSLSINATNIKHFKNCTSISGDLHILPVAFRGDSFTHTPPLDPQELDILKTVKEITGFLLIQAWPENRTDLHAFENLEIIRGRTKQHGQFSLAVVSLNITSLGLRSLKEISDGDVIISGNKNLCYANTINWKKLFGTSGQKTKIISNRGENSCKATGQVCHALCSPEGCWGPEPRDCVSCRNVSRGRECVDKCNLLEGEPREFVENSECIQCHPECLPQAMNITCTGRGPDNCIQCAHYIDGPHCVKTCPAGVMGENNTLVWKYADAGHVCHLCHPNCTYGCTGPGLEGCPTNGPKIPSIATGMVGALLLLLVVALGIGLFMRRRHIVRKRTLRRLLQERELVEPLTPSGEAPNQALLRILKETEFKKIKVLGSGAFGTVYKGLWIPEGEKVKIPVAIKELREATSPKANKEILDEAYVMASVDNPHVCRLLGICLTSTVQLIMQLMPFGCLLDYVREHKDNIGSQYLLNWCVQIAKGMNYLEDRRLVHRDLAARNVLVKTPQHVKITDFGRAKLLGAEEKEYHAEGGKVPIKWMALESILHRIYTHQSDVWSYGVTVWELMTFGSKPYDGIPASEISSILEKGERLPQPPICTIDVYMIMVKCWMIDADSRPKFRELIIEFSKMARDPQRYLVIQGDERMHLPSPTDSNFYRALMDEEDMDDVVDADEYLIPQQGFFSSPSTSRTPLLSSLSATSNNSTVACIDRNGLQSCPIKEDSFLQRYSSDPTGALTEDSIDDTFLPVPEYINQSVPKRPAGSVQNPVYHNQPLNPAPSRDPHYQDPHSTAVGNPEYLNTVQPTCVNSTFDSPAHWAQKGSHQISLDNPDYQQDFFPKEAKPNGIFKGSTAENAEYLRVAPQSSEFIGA

Homo sapiens = species on record: Homo sapiens; experiment: Selectivity ratio of Kd for wild type partial length human EGFR to Kd for partial length human EGFR L858R/T790M double mutant
A-431 = experiment: Antiproliferative activity against human A431 cells expressing wild type EGFR by MTS assay; assay type: cell-based
NCI-H1975 [3] = experiment: Antiproliferative activity against human NCI-H1975 cells expressing EGFR L858R/T790M double mutant by MTS assay; assay type: functional, cell-based
[4] = Selectivity ratio of IC50 for human A431 cells expressing wild type EGFR to IC50 for human NCI-H1975 cells expressing EGFR L858R/T790M double mutant
NCI-H1975 [5] = experiment: Antiproliferative activity against gefitinib resistant human NCI-H1975 cells expressing EGFR L858R/T790M double mutant after 72 hrs by MTS assay; assay type: functional, cell-based; settings: NCI-H1975, 72 h
BaF3 [6] = experiment: Antiproliferative activity against gefitinib resistant mouse BA/F3 cells expressing EGFR L858R/T790M double mutant after 72 hrs by MTS assay; assay type: functional, cell-based; settings: BaF3, 72 h
BaF3 [7] = experiment: Antiproliferative activity against gefitinib sensitive mouse BA/F3 cells expressing EGFR exon 19 del E746_A750 activating mutant after 72 hrs by MTS assay; assay type: functional, cell-based; settings: BaF3, 72 h
BaF3 [8] = experiment: Antiproliferative activity against mouse BA/F3 cells expressing wild type EGFR after 72 hrs by MTS assay; assay type: cell-based; settings: BaF3, 72 h
BaF3 [9] = experiment: Selectivity ratio of IC50 for gefitinib sensitive mouse BA/F3 cells expressing wild type EGFR to IC50 for gefitinib resistant mouse BA/F3 cells expressing EGFR L858R/T790M double mutant
BaF3 [10] = experiment: Potency index, ratio of gefitinib IC50 to compound IC50 for gefitinib resistant mouse BA/F3 cells expressing EGFR L858R/T790M double mutant; assay type: functional
NCI-H1975 [11] = experiment: Potency index, ratio of gefitinib IC50 to compound IC50 for gefitinib resistant human NCI-H1975 cells expressing EGFR L858R/T790M double mutant; assay type: functional
PC-9 = experiment: Antiproliferative activity against gefitinib resistant human PC9 cells expressing EGFR del E746_A750/T790M mutant after 72 hrs by MTS assay; assay type: functional, cell-based; settings: PC-9, 72 h
NCI-H1975 [12] = experiment: Antiproliferative activity against human NCI-H1975 cells expressing EGFR L858R/T790M double mutant assessed as decrease in cell viability after 48 hrs by WST assay; assay type: functional, cell-based; settings: NCI-H1975, 48 h

Chain of Epidermal growth factor receptor (Homo sapiens, UniProt P00533) (P00533 whole entry): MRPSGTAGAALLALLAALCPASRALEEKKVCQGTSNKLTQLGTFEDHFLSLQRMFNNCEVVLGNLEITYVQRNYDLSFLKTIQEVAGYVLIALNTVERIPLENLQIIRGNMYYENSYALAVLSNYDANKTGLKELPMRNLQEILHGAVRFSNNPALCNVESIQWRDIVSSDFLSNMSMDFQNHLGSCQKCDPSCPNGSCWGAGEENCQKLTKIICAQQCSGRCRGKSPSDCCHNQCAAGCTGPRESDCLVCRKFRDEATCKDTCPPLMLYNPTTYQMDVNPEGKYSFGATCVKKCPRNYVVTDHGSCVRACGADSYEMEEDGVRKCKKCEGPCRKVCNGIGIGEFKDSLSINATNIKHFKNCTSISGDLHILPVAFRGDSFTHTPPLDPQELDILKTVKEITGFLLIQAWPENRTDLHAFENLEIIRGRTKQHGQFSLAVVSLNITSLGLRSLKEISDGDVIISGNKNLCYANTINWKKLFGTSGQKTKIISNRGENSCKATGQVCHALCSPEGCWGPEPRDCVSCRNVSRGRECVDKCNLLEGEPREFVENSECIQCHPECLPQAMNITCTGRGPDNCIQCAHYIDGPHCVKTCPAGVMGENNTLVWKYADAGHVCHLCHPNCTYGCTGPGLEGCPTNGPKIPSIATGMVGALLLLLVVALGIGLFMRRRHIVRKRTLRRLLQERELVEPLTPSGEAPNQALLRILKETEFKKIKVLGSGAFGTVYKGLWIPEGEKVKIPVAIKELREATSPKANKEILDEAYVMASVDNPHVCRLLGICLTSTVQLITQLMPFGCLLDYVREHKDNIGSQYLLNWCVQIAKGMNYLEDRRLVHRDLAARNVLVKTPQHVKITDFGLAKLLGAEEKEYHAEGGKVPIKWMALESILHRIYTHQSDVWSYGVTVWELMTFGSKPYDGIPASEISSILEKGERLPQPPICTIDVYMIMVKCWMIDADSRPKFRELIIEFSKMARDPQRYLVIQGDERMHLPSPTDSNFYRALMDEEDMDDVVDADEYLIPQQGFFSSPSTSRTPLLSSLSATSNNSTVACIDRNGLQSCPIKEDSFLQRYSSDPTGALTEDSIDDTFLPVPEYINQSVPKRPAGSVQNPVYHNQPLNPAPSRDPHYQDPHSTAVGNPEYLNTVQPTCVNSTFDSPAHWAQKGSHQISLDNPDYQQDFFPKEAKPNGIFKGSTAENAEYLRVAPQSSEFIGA

Kd [1]	Kd [2]	Selectivity ratio (Homo sapiens)	IC50 (A-431)	IC50 (NCI-H1975 [3])	IC50 (NCI-H1975 [5])	IC50 (BaF3 [6])	IC50 (BaF3 [7])	IC50 (BaF3 [8])	IC50 (PC-9)	IC50 (NCI-H1975 [12])	SMILES	Ratio IC50 [4]	Ratio IC50 (BaF3 [9])	Ratio IC50 (BaF3 [10])	Ratio IC50 (NCI-H1975 [11])
110 nM	1.1 nM	100	3570 nM	307 nM							C=CC(=O)Nc1cccc(-n2c3nc(Nc4ccc(N5CCN(C)CC5)cc4OC)ncc3c(=O)n3c4ccccc4nc23)c1	12			
420 nM	3.1 nM	136	5250 nM	396 nM							C=CC(=O)Nc1cccc(-n2c3nc(Nc4ccc(N5CCN(C)CC5)cc4OCC)ncc3c(=O)n3ccnc23)c1	13			
					9 nM	9 nM	2 nM	32 nM			C=CC(=O)Nc1cccc(Sc2nc(Nc3ccc(N4CCN(C)CC4)cc3)ncc2Cl)c1		4	30 - 100	30 - 100
					29 nM	5 nM	2 nM	24 nM			C=CC(=O)Nc1cccc(Oc2nc(Nc3ccc(N4CCN(C)CC4)cc3)ncc2Cl)c1		5	30 - 100	30 - 100
			1040 nM	55 nM	47 nM	8 nM	3 nM	113 nM	14 nM		C=CC(=O)Nc1cccc(Oc2nc(Nc3ccc(N4CCN(C)CC4)cc3OC)ncc2Cl)c1				
310 nM	2.6 nM	119	14500 nM	86 nM							C=CC(=O)Nc1cccc(-n2c3nc(Nc4ccc(N5CCN(NC)CC5)cc4OC)ncc3c(=O)n3ccnc23)c1	169			
950 nM	6.1 nM	156	> 30000 nM	476 nM							C=CC(=O)Nc1cccc(-n2c3nc(Nc4ccc(N5CCOCC5)cc4OC)ncc3c(=O)n3ccnc23)c1	63			
										900 nM	CN(C)C/C=C/C(=O)Nc1cc2c(Nc3ccc(F)c(Cl)c3)ncnc2cc1O[C@H]1CCOC1 [AFATINIB]				
140 nM	1.8 nM	78	2980 nM	143 nM							C=CC(=O)Nc1cccc(-n2c3nc(Nc4ccc(N5CCN(C)CC5)cc4OC)ncc3c(=O)n3ccnc23)c1	21			
17 nM	0.88 nM	20	1540 nM	648 nM							C=CC(=O)Nc1cccc(N2C3=NCCCCN3C(=O)c3cnc(Nc4ccc(N5CCN(C)CC5)cc4OC)nc32)c1	3			
